Source: paper PMC9411704, “Assessment of the Carcinogenic Potential of Pretomanid in Transgenic Tg.rasH2 Mice” (International Journal of Toxicology, 2022)
Like-named read-outs stand apart in the source and are kept apart here.

Assays:
Tg.rasH2 mice = conditions: for Incidence of lung adenoma, multiple / Incidence of lung adenoma, single / Incidence of lung carcinoma / Incidence of lung tumors, combined / Incidence of thymus, thymoma / Incidence of urethra papilloma / Incidence of Harderian gland carcinoma / Incidence of Harderian gland adenoma / Incidence of hemangiosarcoma, combined / Incidence of hemangiosarcoma, multicentric (includes abdominal skin and thoracic wall) / Incidence of hemangiosarcoma, spleen / Incidence of hemangiosarcoma, uterus / Incidence of hemangiosarcoma, vagina / Survival rate / Incidence of hemangiosarcoma, kidney / Incidence of hemangiosarcoma, spinal cord, lumbar: 26 weeks
Experimental: The vehicle was 0.5% carboxymethylcellulose (CMC) with 0.1% Tween 80 (v/v). The vehicle and pretomanid formulations were administered to mice by oral gavage once daily at a dosing volume of 10 mL/kg. Individual dose volumes were calculated based on each animal’s most recently recorded body weight. The dose formulations were magnetically stirred at room temperature for at least 30 minutes prior to and during dosing. The positive control was urethane in 0.9% sodium chloride and was administered via intraperitoneal injection for a total of three times. The positive control formulation was allowed to stand at room temperature for at least 30 minutes and inverted several times prior to dose administration. Aliquots (0.5 to 1.0 mL) were collected from the top, bottom, and middle of the first (week 1), interim (week 13), and last (week 25) pretomanid dose formulations to assess the accuracy of the concentration and/or homogeneity.
Male and female Tg.rasH2 [CByB6F1-Tg(HRAS)2Jic (+/−hemizygous c-Ha-ras)] mice (n = 110/sex) approximately 5 weeks of age were assigned to the main cohort groups to assess carcinogenicity. Male and female wild type CByB6F1 mice [CByB6F1-Tg(HRAS)2Jic (−/−homozygous c-Ha-ras)] (n = 34/sex) approximately 6 weeks of age were assigned to the cohort of mice used to assess the toxicokinetics of pretomanid and its M50 metabolite. […] All mice were obtained from Taconic Biosciences (Germantown, NY). The supplier verified that the mice were murine pathogen-free and females were nulliparous and non-pregnant. At the time of dosing initiation (Day 1), the toxicokinetic mice were approximately 8 weeks of age. On Day 1 of the study, the body weights of the main cohort mice ranged from 19.2 to 25.9 grams (males) and from 15.9 to 20.4 grams (females), and the body weights of the TK cohort mice ranged from 23.4 to 30.2 grams (males) and from 17.6 to 23.5 grams (females).
This study assessed the carcinogenic potential of pretomanid following repeated oral gavage administration once daily for 26 weeks in hemizygous Tg.rasH2 [CByB6F1-Tg(HRAS)2Jic (+/− hemizygous c-Ha-ras)] mice. This study also evaluated the TK profile of pretomanid and metabolite M50 in wild-type CByB6F1 [CByB6F1-Tg(HRAS)2Jic (−/−homozygous c-Ha-ras)] mice. The study was conducted under GLP regulations.
For carcinogenicity assessment (main cohort), 25 mice/sex were included in the vehicle control and pretomanid-treated groups. At the time of dosing initiation (Day 1), the main cohort mice used for assessing carcinogenicity were approximately 7 weeks of age and weighed between 15.9 to 20.4 g (females) and 19.2 to 25.9 g (males). Male groups (Groups 2, 4, and 6) received pretomanid in vehicle at doses of 5, 15, and 40 mg/kg/day, respectively. Female groups (Groups 3, 5, and 7) received pretomanid in vehicle at doses of 10, 30, and 80 mg/kg/day. Positive control mice (n = 10/sex) were included in the main cohort and received three intraperitoneal injections of urethane in saline (1000 mg/kg/injection) on Days 1, 3, and 5. The test and control articles were administered at a dose volume of 10 mL/kg body weight.
Clinical signs, body weights, and food consumption were assessed for the main cohort animals to monitor animal health and any potential toxicity from pretomanid administration. In-life measurements were recorded in Provantis™ Version 9.4.6.3 (Instem, Philadelphia, PA).
All animals, including those in the TK cohort, were observed twice daily for morbidity and mortality. For animals in the main cohort, cage side observations were performed on the day of dosing within 2 hours after the last animal in each group was dosed (Days 1, 3, and 5 for positive control animals).

mouse lymphoma cells = assay: Non-GLP in vitro mouse lymphoma assay; assay type: cell-based; conditions: concentrations up to 1000 μg/mL, data not shown
[1] = female, Tg.rasH2 [CByB6F1-Tg(HRAS)2Jic (+/- hemizygous c-Ha-ras)], mouse, in vivo, po, 10 mg/kg/day
[2] = female, Tg.rasH2 [CByB6F1-Tg(HRAS)2Jic (+/- hemizygous c-Ha-ras)], mouse, in vivo, po, 30 mg/kg/day
[3] = female, Tg.rasH2 [CByB6F1-Tg(HRAS)2Jic (+/- hemizygous c-Ha-ras)], mouse, in vivo, po, 80 mg/kg/day
[4] = female, Tg.rasH2 [CByB6F1-Tg(HRAS)2Jic, hemizygous c-Ha-ras], mouse, in vivo, po, 10 mg/kg/day
[5] = female, Tg.rasH2 [CByB6F1-Tg(HRAS)2Jic, hemizygous c-Ha-ras], mouse, in vivo, po, 30 mg/kg/day
[6] = female, Tg.rasH2 [CByB6F1-Tg(HRAS)2Jic, hemizygous c-Ha-ras], mouse, in vivo, po, 80 mg/kg/day
[7] = male, Tg.rasH2 [CByB6F1-Tg(HRAS)2Jic (+/- hemizygous c-Ha-ras)], mouse, in vivo, po, 5 mg/kg/day
[8] = male, Tg.rasH2 [CByB6F1-Tg(HRAS)2Jic (+/- hemizygous c-Ha-ras)], mouse, in vivo, po, 15 mg/kg/day
[9] = male, Tg.rasH2 [CByB6F1-Tg(HRAS)2Jic (+/- hemizygous c-Ha-ras)], mouse, in vivo, po, 40 mg/kg/day
[10] = male, Tg.rasH2 [CByB6F1-Tg(HRAS)2Jic, hemizygous c-Ha-ras], mouse, in vivo, po, 5 mg/kg/day
[11] = male, Tg.rasH2 [CByB6F1-Tg(HRAS)2Jic, hemizygous c-Ha-ras], mouse, in vivo, po, 15 mg/kg/day
[12] = male, Tg.rasH2 [CByB6F1-Tg(HRAS)2Jic, hemizygous c-Ha-ras], mouse, in vivo, po, 40 mg/kg/day

O=[N+]([O-])c1cn2c(n1)OC[C@@H](OCc1ccc(OC(F)(F)F)cc1)C2 [Pretomanid, (6S)-2-nitro-6-{[4-(trifluoromethoxy)benzyl]oxy}-6,7-dihydro-5H-imidazo[2,1-b][1,3]oxazine]
Early death: cause of death (Tg.rasH2 mice; Group 3F, female, 10 mg/kg/d): Multicentric hemangiosarcoma
Early death: day of death (Tg.rasH2 mice; Group 3F, female, 10 mg/kg/d): 184
Early death: interpretation (Tg.rasH2 mice; Group 3F, female, 10 mg/kg/d): Natural death
Early death: cause of death (Tg.rasH2 mice; Group 5F, female, 30 mg/kg/d): Caught in feeder
Early death: day of death (Tg.rasH2 mice; Group 5F, female, 30 mg/kg/d): 7
Early death: interpretation (Tg.rasH2 mice; Group 5F, female, 30 mg/kg/d): Accidental
Early death: interpretation (Tg.rasH2 mice; Group 7F, female, 80 mg/kg/d (two animals)): Natural death
Incidence of lung adenoma, multiple (Tg.rasH2 mice; [1]): 0%
Incidence of lung adenoma, single (Tg.rasH2 mice; [1]): 0%
Incidence of lung carcinoma (Tg.rasH2 mice; [1]): 0%
Incidence of lung tumors, combined (Tg.rasH2 mice; [1]): 0%
Incidence of thymus, thymoma (Tg.rasH2 mice; [1]): 4%
Incidence of urethra papilloma (Tg.rasH2 mice; [1]): 0%
Incidence of Harderian gland carcinoma (Tg.rasH2 mice; [2]): 0%
Incidence of lung adenoma, multiple (Tg.rasH2 mice; [2]): 0%
Incidence of lung adenoma, single (Tg.rasH2 mice; [2]): 4%
Incidence of lung carcinoma (Tg.rasH2 mice; [2]): 0%
Incidence of lung tumors, combined (Tg.rasH2 mice; [2]): 4%
Incidence of thymus, thymoma (Tg.rasH2 mice; [2]): 0%
Incidence of urethra papilloma (Tg.rasH2 mice; [2]): 0%
Incidence of Harderian gland carcinoma (Tg.rasH2 mice; [3]): 8%
Incidence of lung adenoma, multiple (Tg.rasH2 mice; [3]): 0%
Incidence of lung adenoma, single (Tg.rasH2 mice; [3]): 0%
Incidence of lung carcinoma (Tg.rasH2 mice; [3]): 8%
Incidence of lung tumors, combined (Tg.rasH2 mice; [3]): 8%
Incidence of thymus, thymoma (Tg.rasH2 mice; [3]): 0%
Incidence of urethra papilloma (Tg.rasH2 mice; [3]): 4%
Incidence of Harderian gland adenoma (Tg.rasH2 mice; [4]): 0%
Incidence of Harderian gland carcinoma (Tg.rasH2 mice; [4]): 4%
Incidence of hemangiosarcoma, combined (Tg.rasH2 mice; [4]): 8%
Incidence of hemangiosarcoma, multicentric (includes abdominal skin and thoracic wall) (Tg.rasH2 mice; [4]): 4%
Incidence of hemangiosarcoma, spleen (Tg.rasH2 mice; [4]): 0%
Incidence of hemangiosarcoma, uterus (Tg.rasH2 mice; [4]): 4%
Incidence of hemangiosarcoma, vagina (Tg.rasH2 mice; [4]): 0%
Incidence of Harderian gland adenoma (Tg.rasH2 mice; [5]): 8%
Incidence of hemangiosarcoma, combined (Tg.rasH2 mice; [5]): 4%
Incidence of hemangiosarcoma, multicentric (includes abdominal skin and thoracic wall) (Tg.rasH2 mice; [5]): 0%
Incidence of hemangiosarcoma, spleen (Tg.rasH2 mice; [5]): 0%
Incidence of hemangiosarcoma, uterus (Tg.rasH2 mice; [5]): 0%
Incidence of hemangiosarcoma, vagina (Tg.rasH2 mice; [5]): 4%
Incidence of Harderian gland adenoma (Tg.rasH2 mice; [6]): 0%
Incidence of hemangiosarcoma, combined (Tg.rasH2 mice; [6]): 8%
Incidence of hemangiosarcoma, multicentric (includes abdominal skin and thoracic wall) (Tg.rasH2 mice; [6]): 0%
Incidence of hemangiosarcoma, spleen (Tg.rasH2 mice; [6]): 8%
Incidence of hemangiosarcoma, uterus (Tg.rasH2 mice; [6]): 0%
Incidence of hemangiosarcoma, vagina (Tg.rasH2 mice; [6]): 0%
Survival rate (Tg.rasH2 mice; females, high-dose (80 mg/kg/day)): 92%
Survival rate (Tg.rasH2 mice; females, low-dose (10 mg/kg/day)): 96%
Survival rate (Tg.rasH2 mice; females, mid-dose (30 mg/kg/day)): 100%
Incidence of Harderian gland adenoma (Tg.rasH2 mice; [7]): 4%
Incidence of Harderian gland carcinoma (Tg.rasH2 mice; [7]): 0%
Incidence of hemangiosarcoma, combined (Tg.rasH2 mice; [7]): 4%
Incidence of hemangiosarcoma, kidney (Tg.rasH2 mice; [7]): 4%
Incidence of hemangiosarcoma, spinal cord, lumbar (Tg.rasH2 mice; [7]): 0%
Incidence of hemangiosarcoma, spleen (Tg.rasH2 mice; [7]): 0%
Incidence of Harderian gland adenoma (Tg.rasH2 mice; [8]): 0%
Incidence of hemangiosarcoma, combined (Tg.rasH2 mice; [8]): 0%
Incidence of hemangiosarcoma, kidney (Tg.rasH2 mice; [8]): 0%
Incidence of hemangiosarcoma, spinal cord, lumbar (Tg.rasH2 mice; [8]): 0%
Incidence of hemangiosarcoma, spleen (Tg.rasH2 mice; [8]): 0%
Incidence of Harderian gland adenoma (Tg.rasH2 mice; [9]): 0%
Incidence of hemangiosarcoma, combined (Tg.rasH2 mice; [9]): 12%
Incidence of hemangiosarcoma, kidney (Tg.rasH2 mice; [9]): 0%
Incidence of hemangiosarcoma, spinal cord, lumbar (Tg.rasH2 mice; [9]): 0%
Incidence of hemangiosarcoma, spleen (Tg.rasH2 mice; [9]): 12%
Incidence of lung adenoma, multiple (Tg.rasH2 mice; [10]): 0%
Incidence of lung adenoma, single (Tg.rasH2 mice; [10]): 20%
Incidence of lung carcinoma (Tg.rasH2 mice; [10]): 0%
Incidence of lung tumors, combined (Tg.rasH2 mice; [10]): 20%
Incidence of Harderian gland carcinoma (Tg.rasH2 mice; [11]): 0%
Incidence of lung adenoma, multiple (Tg.rasH2 mice; [11]): 0%
Incidence of lung adenoma, single (Tg.rasH2 mice; [11]): 8%
Incidence of lung carcinoma (Tg.rasH2 mice; [11]): 0%
Incidence of lung tumors, combined (Tg.rasH2 mice; [11]): 8%
Incidence of Harderian gland carcinoma (Tg.rasH2 mice; [12]): 4%
Incidence of lung adenoma, multiple (Tg.rasH2 mice; [12]): 0%
Incidence of lung adenoma, single (Tg.rasH2 mice; [12]): 4%
Incidence of lung carcinoma (Tg.rasH2 mice; [12]): 0%
Incidence of lung tumors, combined (Tg.rasH2 mice; [12]): 4%
Survival rate (Tg.rasH2 mice; males, high-dose (40 mg/kg/day)): 100%
Survival rate (Tg.rasH2 mice; males, low-dose (5 mg/kg/day)): 100%
Survival rate (Tg.rasH2 mice; males, mid-dose (15 mg/kg/day)): 100%
Incidence of hemangiosarcoma vs vehicle control (Tg.rasH2 mice; mouse, in vivo): did not significantly increase
Incidence of lung tumors vs vehicle control (Tg.rasH2 mice; mouse, in vivo): did not significantly increase
Incidence of non-vascular and non-pulmonary tumors (Tg.rasH2 mice; mouse, in vivo): did not significantly increase
Non-neoplastic microscopic findings (Tg.rasH2 mice; mouse, in vivo): did not produce non-neoplastic microscopic findings
Mean food consumption from Day 1 to 183 vs vehicle control (Tg.rasH2 mice; mouse, in vivo, 30 mg/kg/day): significantly increased
Clinical signs of toxicity (Tg.rasH2 mice; mouse, in vivo, po): did not produce clinical signs of toxicity
Effect on food consumption (Tg.rasH2 mice; mouse, in vivo, po): did not affect food consumption
Genotoxicity in mouse lymphoma assay (mouse lymphoma cells): negative
